Assays:
[1] = system: MCF-7 human breast cancer xenografts; assay: Growth of subcutaneous MCF-7 breast cancer xenograft in mice; assay type: in vivo; conditions: MCF-7 xenograft; for inhibited tumor cell growth over the control group: nu/nu mice, fulvestrant 5 mg SC once per week for four weeks, mean tumor volume vs control group (a)
Protocol: Human breast cancer cell line MCF-7 was obtained from American Type Tissue Culture Collection (ATCC, Manassas, Va.). Cells were routinely maintained in media recommended by the ATCC with slight modifications. Cells were kept at 37° C. in a humidified incubator supplied with 5% CO2. MCF-7 cells were kept in Eagle's minimal essential medium (ATCC) supplemented with 10% FBS and 0.01 mg/ml bovine insulin.
Animal studies were performed under Animal Welfare Regulation Guidelines in a facility accredited by the Association for the Assessment and Accreditation of Laboratory Animal Care (AAALAC). Balb/c or CD-1 nu/nu mice (Charles River, Wilmington, Mass.) were injected subcutaneously with logarithmically growing cells suspended in either serum free culture media, or a 1:1 mixture media and Matrigel™ (BD Biosciences). The tumor models required implantation (on the same day or one day prior to cell inoculation) of estradiol pellets (17-β estradiol, 0.72 mg/pellet, 60 day release; Innovative Research of American, Sarasota, Fla.). The time in days after injection of the tumor cells into the mice was measured as “days post-inoculation”.
Subcutaneous implantation of osmotic pumps (obtained from Alzet, Cupertino, Calif.) was performed under isofluorane anesthesia following manufacturer's protocol. Subcutaneous pumps (hereinafter “SC pumps”) were used to deliver a solution of Compound 1, or its inert solvent. Fulvestrant, or its inert solvent, was delivered by subcutaneous injection on the dorsal flanks of the animals. Treatment was usually initiated when mean tumor volumes were approximately 150 mm^3 at the beginning of treatment. Ten test animals were included in each treatment group, (a)-(d).
(§1) Tumor size was measured and used to calculate tumor volume for a period of time following the injection of the tumor cells into the mice. Tumor size was measured by using a caliper to measure the length (1) and width (w) of tumors to calculate an approximate volume ((l×w^2)/2). These tumor size measurements and tumor volume calculations were recorded relative to the number of days post-inoculation of the mice with the tumor cells. The frequency of the tumor size measurements varied depending on how quickly the tumors grew in size, with more frequent measurements being taken when the tumors grew quickly. Mean tumor volume was calculated based on the tumor volumes for the ten test animals in each treatment group.
(§2) Treatment group (a) was the control group of test animals. […] Tumor size was measured for each test animal as described above and recorded as a function of the number of days post-inoculation of the mice with the MCF-7 breast cancer cells. Mean tumor volume was then calculated for treatment group (a) and plotted against the number of days post-inoculation as shown in FIG. 1. […]

[2] = system: BT-474 human breast cancer xenografts; assay: Growth of subcutaneous BT-474 breast cancer xenograft in mice; assay type: in vivo; conditions: BT-474 xenograft; for inhibited tumor cell growth over the control group: nu/nu mice, Compound 1 60 mg/kg/day SC pump for 14 days, fulvestrant 5 mg SC once per week for four weeks, mean tumor volume vs control group (a); for tumor growth delay (TGD, T-C) to 500 cubic mm by linear regression analysis of tumor growth rate: Compound 1 60 mg/kg/day for 14 days, fulvestrant 5 mg weekly x4, projected time
Protocol: Human breast cancer cell line BT-474 was obtained from American Type Tissue Culture Collection (ATCC, Manassas, Va.). Cells were routinely maintained in media recommended by the ATCC with slight modifications. Cells were kept at 37° C. in a humidified incubator supplied with 5% CO2. BT-474 cells were grown in RPMI 1640 (Invitrogen) supplemented with 10% fetal bovine serum (FBS), 0.01 mg/ml bovine insulin, 10 mM HEPES and 0.1 mM non-essential amino acids.
Animal studies were performed under Animal Welfare Regulation Guidelines in a facility accredited by the Association for the Assessment and Accreditation of Laboratory Animal Care (AAALAC). Balb/c or CD-1 nu/nu mice (Charles River, Wilmington, Mass.) were injected subcutaneously with logarithmically growing cells suspended in either serum free culture media, or a 1:1 mixture media and Matrigel™ (BD Biosciences). The tumor models required implantation (on the same day or one day prior to cell inoculation) of estradiol pellets (17-βestradiol, 0.72 mg/pellet, 60 day release; Innovative Research of American, Sarasota, Fla.). The time in days after injection of the tumor cells into the mice was measured as “days post-inoculation”.
Subcutaneous implantation of osmotic pumps (obtained from Alzet, Cupertino, Calif.) was performed under isofluorane anesthesia following manufacturer's protocol. Subcutaneous pumps were used to deliver a solution of Compound 1, or its inert solvent. Fulvestrant, or its inert solvent, was delivered by subcutaneous injection on the dorsal flanks of the animals. […] Treatment was usually initiated when mean tumor volumes were approximately 150 mm^3 at the beginning of treatment. Ten test animals were included in each Treatment group, (a)-(d).
as §1, with “(l)” for “(1)”, “The frequency of the tumor size measurements varied depending on how quickly the tumors grew in size, with more frequent measurements being taken when the tumors grew quickly.” left out
as §2, with “BT-474” for “MCF-7”, “2.” for “1.”

[3] = Compound 1 60 mg/kg/day SC pump for 14 days

Structure (SMILES)	inhibited tumor cell growth over the control group [1, 3]	tumor growth delay (TGD, T-C) to 1000 cubic mm, real, not calculated [1, 3]	inhibited tumor cell growth over the control group [2]	tumor growth delay (TGD, T-C) to 500 cubic mm by linear regression analysis of tumor growth rate [2]	calculated tumor growth delay (TGD, T-C) to 1000 cubic mm by linear regression analysis of tumor growth curves ([1]; fulvestrant 5 mg SC weekly x4, alone or with Compound 1 60 mg/kg/day for 14 days, projected time)
COC(=O)N1CC2(CC2)C[C@H](C(=O)NO)[C@H]1C(=O)N1CCN(c2ccccc2)CC1 [Compound 1, methyl (6S,7S)-7-[(hydroxyamino)carbonyl]-6-[(4-phenylpiperazin-1-yl)carbonyl]-5-azaspiro[2.5]octane-5-carboxylate]	46%	32 days	33%	19 days	–
C[C@]12CC[C@@H]3c4ccc(O)cc4C[C@@H](CCCCCCCCC[S+]([O-])CCCC(F)(F)C(F)(F)F)[C@H]3[C@@H]1CC[C@@H]2O (some centres unmarked) [fulvestrant]	52%	–	46%	54 days	63 days

Source: patent US8324194B2, “Combination therapy for the treatment of cancer” (Incyte Corporation, priority 2005, dated 2012)
